Measurements as given in paper PMC12998938, “Neutrophil store-operated Ca^2+ entry: A correctable biomarker of cystic fibrosis lung disease progression” (Journal of cystic fibrosis : official journal of the …, 2025).
pIC50: −log10 of the molar value.

Legend:
[1] = test system: Staphylococcus aureus-infected mice; settings: ref [21], cited from earlier work
[2] = test system: ER Ca2+ store release in CF neutrophils; assay: Fluo-4 ER Ca2+ release, CF neutrophils; format: cell-based, human; settings: 3 h pre-treatment, 1 μM thapsigargin, no extracellular Ca2+, 3 donors in triplicate, curves non-CF vs CF p<0.0001
Experimental: (§1) Isolated neutrophils were incubated with peptide or vehicle control for 3 h. For the final hour of treatment, cells were loaded with Fluo-4 direct (Thermofisher) for 45 min at 37°C and 15 min at room temperature as described.
(§2) Fig. 3. ELD607 inhibits SOCE in non-CF and CF neutrophils. (A) and (B) Mean changes in fluo-4 fluorescence as a marker of cytoplasmic Ca^2+ levels in non-CF and CF neutrophils respectively before and after stimulation with 1 μM thapsigargin (Tg). Before stimulation, neutrophils were exposed to vehicle (0.1% DMSO in PBS), 10 μM ELD607 or scrambled peptide (control) for 3 h. N = 10 non-CF and 21 CF donors. Stats show ELD607 vs vehicle or scrambled peptide based on color. […] Neutrophils were stimulated with thapsigargin (1 μM) in the absence of extracellular Ca^2+ to allow the release of Ca^2+ stores to be measured. Extracellular Ca^2+ was then returned so that extracellular Ca^2+ influx could be measured. (C) Mean fold change in Fluo-4 fluorescence during ER store release in non-CF and CF neutrophils. […] (E) Mean fold change in fluo-4 fluorescence during Ca^2+ influx in non-CF and CF neutrophils. […]
(§3) SOCE has 2 phases: release of Ca^2+ from ER stores and Ca^2+ influx from the extracellular space via Ca^2+ channels such as Orai1. […] Once the stores had emptied, extracellular Ca^2+ was reintroduced and Ca^2+ influx was measured (Fig. 3C–F). […]

[3] = test system: ER Ca2+ store release in non-CF neutrophils; assay: Fluo-4 ER Ca2+ release, non-CF neutrophils; format: cell-based, human; settings: 3 h pre-treatment, 1 μM thapsigargin, no extracellular Ca2+, 2 donors in triplicate
Experimental: as §1, §2, §3

[4] = test system: Ca2+ influx in CF neutrophils; assay: Fluo-4 Ca2+ influx across the plasma membrane, CF neutrophils; format: cell-based, human
Experimental: as §1
Fig. 3. ELD607 inhibits SOCE in non-CF and CF neutrophils. (A) and (B) Mean changes in fluo-4 fluorescence as a marker of cytoplasmic Ca^2+ levels in non-CF and CF neutrophils respectively before and after stimulation with 1 μM thapsigargin (Tg). Before stimulation, neutrophils were exposed to vehicle (0.1% DMSO in PBS), 10 μM ELD607 or scrambled peptide (control) for 3 h. N = 10 non-CF and 21 CF donors. Stats show ELD607 vs vehicle or scrambled peptide based on color. (C-F) Isolation of ER Ca^2+ release vs Ca^2+ influx across the plasma membrane in non-CF and CF Neutrophils. Neutrophils were stimulated with thapsigargin (1 μM) in the absence of extracellular Ca^2+ to allow the release of Ca^2+ stores to be measured. Extracellular Ca^2+ was then returned so that extracellular Ca^2+ influx could be measured. (C) Mean fold change in Fluo-4 fluorescence during ER store release in non-CF and CF neutrophils. […] (E) Mean fold change in fluo-4 fluorescence during Ca^2+ influx in non-CF and CF neutrophils. […]
SOCE has 2 phases: release of Ca^2+ from ER stores and Ca^2+ influx from the extracellular space via Ca^2+ channels such as Orai1. […] Once the stores had emptied, extracellular Ca^2+ was reintroduced and Ca^2+ influx was measured (Fig. 3C–F).
Fluo-4 Ca^2+ assays. […] For global Ca^2+ measurements, baseline fluorescent readings were made for 2 min (1 read every 30 s) using a Tecan Infinite M1000 plate reader (ex 494 em 516 nm, bandwidth 5 nm) before thapsigargin (Sigma-Aldrich) was added and the change in emission was recorded for 10 min (1 read every 30 s). […] Baseline fluo-4 fluorescence was read for 2 min before cell were stimulated with thapsigargin (Tocris). Reads continued for ~5 min before 1.2 mM Ca^2+ was added to the extracellular solution and SOCE was measured for ~10 mins. For analysis, all fluo-4 fluorescence reads are normalized to baseline.

MRSA-infected mice = test system: MRSA-infected mice; design: method as in earlier work; settings: reduced lung injury, increased survival, ref [21]; cited from earlier work
[5] = test system: Pseudomonas aeruginosa-infected mice; settings: ref [21], cited from earlier work

Sequence: VHDIVNMLIRG [ELD607, size-optimized SPLUNC1/α6 peptidomimetic]
- neutrophilia and neutrophil elastase release ([1]; S. aureus-infected mice): reduces neutrophilia and neutrophil elastase release
- neutrophil influx into the lungs ([1]; mice, S. aureus, reduced lung injury, increased survival): reduces neutrophil influx into the lungs of mice
- pIC50 [2]: 6.38
- inhibition of ER Ca2+ release [3]: little effect
- Ca2+ influx relative to non-CF levels ([4]; CF neutrophils, absolute terms): restored Ca^2+ from influx CF neutrophils to non-CF levels
- pIC50 ([4]; CF, 3 h pre-treatment, 1 μM thapsigargin, extracellular Ca2+ (1.2 mM) returned, 3 donors in triplicate, vs non-CF p<0.0001): 6.31
- neutrophil influx into the lungs (MRSA-infected mice): reduces neutrophil influx into the lungs of mice
- neutrophilia and neutrophil elastase release ([5]; P. aeruginosa-infected mice): reduces neutrophilia and neutrophil elastase release
- neutrophil influx into the lungs ([5]; mice, P. aeruginosa, reduced lung injury, increased survival): reduces neutrophil influx into the lungs of mice
